Test results from patent US7585859B2, “PDE4B inhibitors and uses therefor” (Plexxikon, Inc., priority 2004, dated 2009).

Experiments:
[1] = target: T1, PDE4B: The catalytic domain of human PDE4B from S152-S528 (Homo sapiens, UniProt Q07343); assay: PDE4 IC50 determination by Scintillation Proximity Assay, PDE4B; format: biochemical; settings: Table 1B, Formula I compounds; read-out: IC50 PDE4B
T1 construct: His6 (N); thrombin cleavage site (N); made in house; host or cells: E. coli
Outline: (§1)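 Scintillation counts reflected [^3H]AMP captured on yttrium silicate SPA beads after enzyme hydrolysed [^3H]cAMP for 30 min at 30°. PDE4B was used at 80 ng/ml and PDE4D at 4 ng/ml. IC50 values came from non-linear regression.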

PDE4D = target: T2, PDE4D (Homo sapiens, UniProt Q08499); assay: PDE4 IC50 determination by Scintillation Proximity Assay, PDE4D; format: biochemical; settings: Table 1B, Formula I compounds; read-out: IC50 PDE4D
T2 construct: PDE4D: The catalytic domain of human PDE4B from S3 16-V692; His6 (N); thrombin cleavage site (N); made in house; host or cells: E. coli
Outline: as §1

[2] = target: T3, full-length human PDE4B2 isozyme (Homo sapiens, UniProt Q07343); assay: PDE4 IC50 determination by Scintillation Proximity Assay, PDE4B2; format: biochemical; settings: Table 1B, Formula I compounds; read-out: IC50 PDE4B2
T3 construct: The full-length human PDE4B2 isozyme; His6 (N); TEV cleavage site (N); made in house; host or cells: baculovirus infected insect cells (unpurified lysate)
Outline: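 Unpurified His6-TEV-tagged full-length human PDE4B2 from baculovirus-infected insect cell lysate (2.5 μl of 50% glycerol stock/ml) hydrolysed [3H]cAMP in 50 mM Tris pH 7.5, 8.3 mM MgCl, 1.7 mM EGTA, 0.01% BSA for 30 min at 30°. Stopped with SPA beads in 18 mM ZnSO4; [3H]AMP scintillation counted, IC50 by non-linear regression.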

[3] = target: T4, full-length human PDE4D5 isozyme (Homo sapiens, UniProt Q08499); assay: PDE4 IC50 determination by Scintillation Proximity Assay, PDE4D5; format: biochemical; settings: Table 1B, Formula I compounds; read-out: IC50 PDE4D5
T4 construct: The full-length human PDE4D5 isozyme; His6 (N); TEV cleavage site (N); made in house; host or cells: baculovirus infected insect cells (unpurified lysate)
Outline: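 Unpurified His6-tagged full-length human PDE4D5 from baculovirus-infected insect cell lysate, 0.083 μl glycerol stock/ml, hydrolysed [3H]cAMP in Tris pH 7.5/MgCl/EGTA buffer, 30 min at 30°. ZnSO4/SPA beads stop; [3H]AMP counted. Controls: DMSO and roflumilast; 11-point duplicate curves, nonlinear-regression IC50.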

[4] = system: TNF alpha production in LPS-stimulated human blood (Buffy coat); assay: TNF alpha production by stimulation with LPS in whole blood cultures; format: cell-based; settings: Homo sapiens; Table 1B, Formula I compounds; read-out: IC50 h TNFα
Experimental: Compounds were assayed to generate IC50 numbers as described in Example 54, using the following assay protocol (see Tables 3B and 4B for compounds and results).
Protocol • 1) Obtained 20 mM DMSO aliquots of desired concentrations of compounds (see Tables 3B and 4B for compounds tested and results). Placed 2 μl/well compound in DMSO in the top row of the dilution plate. Added 98 μl of RPMI 1640 media w/2.5% heat inactivated FBS.
2) Made the same media with 2% DMSO in it. Added 60 μl/well to well to make compound titration. Took 30 μl of top row and did a 1:3 dilution down the plate. In column 11 added 4 wells of 50 μM roflumilast and piclamilast. In column 12 added 2% DMSO media.
3) Transfered 20 μl/well into assay plates in duplicate.
4) Obtained human Buffy coat.
5) Diluted blood with 7 volumes of RPMI 1640 media with 1% P/S and 2.5% heat inactivated FBS (a 1:8 dilution)
6) Added160 μl/well of diluted blood to the assay plates.
7) Incubated for 1 hour at 37 degrees 5% CO2
8) Diluted LPS (which was already diluted to 1 mg/ml in PBS, 20 μl aliquots frozen −20 C.) to 10× desired final concentration to make a […] dilution (final concentration should be 100 ng/ml).
9) After 1 hour incubation added 20 μl/well of LPS to plates. A non-LPS treated background was also prepared. Samples were put on the shaker for a one minute 900 rpm.
10) Incubated for 4 hours in incubator.
11) After incubation, put on the shaker for a one minute 900 rpm and spun plate at 100 g for 10 minutes, Decel 5.
12) Carefully pipetted the top 75 μl supernatant into a new plate. Samples were frozen as needed.
Biosource hu-TNF ALPHA ELISA
• REAGENTS USED • DPBS 10×: VWR45000-428 (dilute 1:10 with Millipore Water) • TWEEN 20: FISHER BP337-500 • CAPTURE AND DETECTION ANTIBODIES: R&D DY510E • STREP-HRP: Biosource part SNN4004X • COLOR REAGENTS: R&D DY994 • STOP SOLUTION: from chemistry, or R&D DY999 • 1) Thawed samples to RT as needed. • 2) Added 50 μl Incubation buffer/well. • 3) Added 50 μl blood samples +50 μl Diluent buffer • 4) Incubated 2 hours at room temp. • 5) Washed the plate 4× with 300 μl/well wash buffer with microfill. Wash buffer was DPBS with 0.05% Tween pH 7.2-7.4 • 6) Added 100 μl biotinylated anti-TNFalpha • 7) Incubateed 1 hours at room temp. • 8) Washed the plate 4× with 300 μl/well wash buffer with microfill. Wash buffer was DPBS with 0.05% Tween pH 7.2-7.4 • 9) Added^100 μl Streptavidin-HRP working solution • 10) Incubated for 30 minutes at room temp. • 11) Washed the plate 4× with 300 μl/well wash buffer with microfill. Wash buffer was DPBS with 0.05% Tween pH 7.2-7.4 • 12) Added 100 μl Chromagen • 13) Incubated in the dark for 30 minutes until the blue color developed satisfactorily. • 14) Added 100 μl/well stop solution (2 N H2SO4). • 15) Read plate on WallacVictor at 450 nm for 0.1 sec/well

T4 sequence (Q08499 1-745 isoform Q08499-6): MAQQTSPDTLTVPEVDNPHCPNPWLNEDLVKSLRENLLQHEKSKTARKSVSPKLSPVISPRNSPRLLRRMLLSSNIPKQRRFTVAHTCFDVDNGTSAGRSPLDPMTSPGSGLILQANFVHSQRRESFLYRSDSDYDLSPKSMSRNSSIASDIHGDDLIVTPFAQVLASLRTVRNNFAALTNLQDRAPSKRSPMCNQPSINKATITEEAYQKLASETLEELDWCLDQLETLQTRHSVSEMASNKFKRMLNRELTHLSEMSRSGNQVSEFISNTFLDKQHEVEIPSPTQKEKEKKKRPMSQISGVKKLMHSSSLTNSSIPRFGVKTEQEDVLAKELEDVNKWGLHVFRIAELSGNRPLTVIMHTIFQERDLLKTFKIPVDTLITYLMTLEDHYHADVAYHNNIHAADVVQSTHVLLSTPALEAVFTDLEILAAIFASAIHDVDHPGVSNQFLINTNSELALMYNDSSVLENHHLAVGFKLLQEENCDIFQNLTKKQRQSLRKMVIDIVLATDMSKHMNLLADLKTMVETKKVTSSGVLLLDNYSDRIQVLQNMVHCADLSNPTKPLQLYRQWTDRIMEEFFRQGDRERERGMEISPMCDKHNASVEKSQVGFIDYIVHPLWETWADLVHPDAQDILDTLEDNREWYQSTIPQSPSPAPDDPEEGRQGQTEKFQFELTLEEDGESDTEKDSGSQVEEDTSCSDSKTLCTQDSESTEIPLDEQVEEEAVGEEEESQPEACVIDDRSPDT
T1 sequence (Q07343 with tags, fused parts or gaps): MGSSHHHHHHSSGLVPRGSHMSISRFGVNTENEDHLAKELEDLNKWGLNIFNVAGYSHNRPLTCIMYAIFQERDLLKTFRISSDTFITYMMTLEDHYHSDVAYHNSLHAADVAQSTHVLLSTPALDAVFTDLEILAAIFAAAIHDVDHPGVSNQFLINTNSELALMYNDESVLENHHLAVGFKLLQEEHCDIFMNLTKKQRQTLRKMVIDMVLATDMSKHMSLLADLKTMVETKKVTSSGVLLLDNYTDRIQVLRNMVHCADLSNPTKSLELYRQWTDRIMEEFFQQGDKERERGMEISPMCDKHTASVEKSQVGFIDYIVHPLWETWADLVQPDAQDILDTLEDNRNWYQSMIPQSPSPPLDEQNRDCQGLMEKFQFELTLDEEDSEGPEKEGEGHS
T3 sequence (Q07343 1-564 isoform Q07343-2): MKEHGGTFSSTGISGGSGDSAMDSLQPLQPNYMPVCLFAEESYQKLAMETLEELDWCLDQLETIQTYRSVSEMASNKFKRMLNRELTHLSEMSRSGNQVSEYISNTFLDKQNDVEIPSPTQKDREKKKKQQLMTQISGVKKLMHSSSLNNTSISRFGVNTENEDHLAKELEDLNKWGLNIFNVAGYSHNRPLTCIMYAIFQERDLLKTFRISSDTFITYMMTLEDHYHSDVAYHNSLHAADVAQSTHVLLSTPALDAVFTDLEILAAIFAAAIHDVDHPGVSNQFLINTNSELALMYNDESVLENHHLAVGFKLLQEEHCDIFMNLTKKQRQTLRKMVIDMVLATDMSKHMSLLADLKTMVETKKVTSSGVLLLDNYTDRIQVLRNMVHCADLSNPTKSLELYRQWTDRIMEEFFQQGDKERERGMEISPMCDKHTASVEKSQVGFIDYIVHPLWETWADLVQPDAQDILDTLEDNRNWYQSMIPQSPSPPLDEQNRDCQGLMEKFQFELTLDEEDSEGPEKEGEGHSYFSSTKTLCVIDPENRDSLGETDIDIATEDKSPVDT
T2 sequence (Q08499 380-756): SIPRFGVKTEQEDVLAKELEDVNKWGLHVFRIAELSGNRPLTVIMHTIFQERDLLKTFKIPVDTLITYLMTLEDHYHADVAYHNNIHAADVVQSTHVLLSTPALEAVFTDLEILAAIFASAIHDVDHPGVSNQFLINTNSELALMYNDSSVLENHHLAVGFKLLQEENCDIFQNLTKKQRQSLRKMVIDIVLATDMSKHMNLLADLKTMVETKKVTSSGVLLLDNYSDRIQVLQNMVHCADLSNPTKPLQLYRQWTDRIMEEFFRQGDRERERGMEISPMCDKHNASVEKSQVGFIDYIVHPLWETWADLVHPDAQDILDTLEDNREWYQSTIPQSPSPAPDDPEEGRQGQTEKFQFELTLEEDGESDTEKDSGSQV

IC50 [1]: < 10 µM
IC50 (PDE4D): < 10 µM
IC50 [2]: < 10 µM
IC50 [3]: < 10 µM
IC50 [4]: < 10 µM
SMILES: CC(C)CNc1sc(C(=O)c2cc(-c3ccc(N)cc3)no2)c(N)c1C(N)=O [Compound 1-254, 4-Amino-5-[3-(4-amino-phenyl)-isoxazole-5-carbonyl]-2-isobutylamino-thiophene-3-carboxylic acid amide]
